pEC50, pIC50: −log10 of the molar value.
Experiments:
[1] = test system: Mytilus galloprovincialis; assay: Mussel foot retraction assay; type: in vivo; conditions: for Mussels showing foot retraction: 200 μM, highest test concentration; for pEC50: Mytilus galloprovincialis, dripped on the foot, read-out: Concentration required to cause foot repulsion in 50% of mussels
Method: The mussel Mytilus galloprovincialis was used as target organism. Individuals of 4.0–4.5 cm shell length were collected at intertidal rocky shore of the outer Ría de Vigo (NW Spain). Animals were kept in running seawater aquarium tanks with open-flow design for few days and fed daily by pulses with a mixture of the microalgae (Tahitian Isochrysis aff. galbana) and sediment from the seafloor below the mussel rafts.
Mussel foot retracting assay was conducted following the method reported by Hayashi and Miki. Briefly, subsamples of individuals from the maintenance tanks were transferred to containers filled with 1-μm FSW. After 30 min, the posterior adductor muscle (PAM) was cut to open both animal´s valves as shown in S1A Fig, and byssus filaments were removed from their insertion with the soft tissues. Animals were disposed individually on flexible innocuous plasticine basis as a holder still for 15 min in FSW. The latter disposition avoided animal´s manipulation before and after each test solution was dripped directly on the foot of immobilized animals. FSW was removed and animals exposed their internal cavities in dry conditions for the dripping actions but maintaining a humidity layer over soft tissues.
Initially two different controls (negative and positive) were considered. As negative control, 2.5 μl of DMSO in 0.2-μm FSW was used. […] After the negative control test, the animals were disposed back in 1-μm FSW for 15 min. With regard to the positive control, 1000 ppm of CuSO4 was used. For the latter case, only animals that did react to such positive control were used. After this second control, animals were disposed back in 1-μm FSW, this time for 25 min in order to remove completely any rest of copper. All animals considered for the experiment have accomplished the two controls satisfactorily.
Different concentrations (6.25, 12.5, 25, 50, 100 and 200 μM) of two test compounds, 3 and 16 were used. Stocks of 40 mM for the two compounds under investigation were prepared in DMSO. Posterior dilution actions to get the distinct concentrations desired were prepared with 0.2-μm FSW. Concentrations were tested in ascending order from 6.25 to 200 μM. Animals were kept in 0.2-μm FSW for 15 min at each time interval between sampling with the aim to wash the internal soft tissues. After each removal of seawater, animals were ready to use again.
Eight series of ten animals each were considered for retracting muscle foot analysis and each test compound. Each potential foot-reacting substance was individually dripped on the foot of the mussels (S1B Fig) and the animal’s reactions were noted. […]

[2] = test system: V. harveyi WT and reporter strains; assay: V. harveyi growth inhibition (OD600); type: cell-based; conditions: Vibrio harveyi, 18 h, read-out: IC50 Growth
Method: (§1) V. harveyi BB120 (wild type strain), BB170 (luxN::Tn5kan), BB886 (luxPQ::Tn5kan) and BB721 (luxO::Tn5lacZ) were acquired from ATCC. To screen the ability of the compounds to interfere with QS, the test products were serially diluted in 100 μl of Autoinducer Bioassay (AB) medium using white, clear-bottom 96-well microtiter plates (Costar 3610) as assay platform. Aerobic bacterial cultures were incubated overnight (30 °C) and diluted 1:50. One-hundred μl of the diluted cultures were dispensed inside each well in the microtiter plate. That gave a starting cell density of 1–2 x 10^7 cfu ml^-1. The plates were covered with a sterile sealing film. Luminescence and OD600 were monitored every 15 min over 18 h with a multimode plate reader (Perkin-Elmer EnSpire) in order to correlate the effects of the products on both the growth and bioluminescence kinetics.
(§2) Compounds 3–5 and 7 were evaluated in V. harveyi WT and three mutant strains: BB886 (luxPQ::Tn5Kan), unable to detect AI-2; BB170 (luxN::Tn5Kan), unable to detect HAI-1; and BB721 (luxO::Tn5lacZ), a LuxO null mutant that produces maximal luminescence per cell constitutively. In order to take into account the cumulative effects of the compounds, bioluminescence and growth were measured simultaneously every 15 min over 18 h (Fig 7). Accordingly, IC50 values for bacterial luminescence and growth were obtained by integration of the areas under the curves for each tested dose (Table 3). For clarity of the graphs, error bars has been omitted in Fig 7 and only the mean curves are shown.

[3] = test system: V. harveyi BB120 (wild type strain); assay: Quorum sensing bioassay: bioluminescence; type: cell-based; conditions: Vibrio harveyi, 18 h, read-out: IC50 Luminescence WT
Method: as §1, §2

[4] = test system: V. harveyi BB170 (luxN::Tn5kan); assay: Quorum sensing bioassay: bioluminescence; type: cell-based; conditions: Vibrio harveyi, 18 h, read-out: IC50 Luminescence BB170
Method: as §1, §2

[5] = test system: V. harveyi BB886 (luxPQ::Tn5kan); assay: Quorum sensing bioassay: bioluminescence; type: cell-based; conditions: Vibrio harveyi, 18 h, read-out: IC50 Luminescence BB886
Method: as §1, §2

[6] = test system: V. harveyi BB721 (luxO::Tn5lacZ); assay: Quorum sensing bioassay: bioluminescence; type: cell-based; conditions: Vibrio harveyi, 18 h, read-out: IC50 Luminescence BB721
Method: as §1, §2

in vivo = conditions: in vivo
Method: All the biological assays were run by triplicate. […] For the active products, serial dilutions were performed to calculate the half-maximal inhibitory concentrations (IC50) or the minimal inhibitory concentrations (MIC). Unless otherwise stated, the test concentrations were 100, 50, 25, 10, 5, 2.5, 1, 0.5 and 0.1 μM. Dose-response curves were adjusted with GraphPad Prism 5 software using a four-parameter non-linear regression model.
Artemia salina cysts (INVE Aquaculture, Ghent, Belgium) were hatched in brackish water (30 ‰ salinity) at 28 °C with aeration and under constant light. Newly hatched instar I nauplii were harvested for bioassays. Tests were conducted in 96-well plates (15±5 nauplii per well, test volume = 200 μl). The number of dead and alive individuals was recorded after 24 h of incubation at 28 °C and 24-hour photoperiod.

[7] = Solubility in water (stock preparation); type: physicochemical; conditions: for 40-mM stock
Method: Indeed, the inhibitions observed in violacein production for long alkyl chains (10–18, 20) were clearly correlated to the biocidal effect exerted by these compounds, with ‘therapeutic ratios’ (IC50 for growth inhibition/IC50 for violacein inhibition) around 1, in general (Table 2). Note that, as the length of the hydrocarbon chain becomes shorter, this ratio increased (8–9). […] To evaluate these compounds in further detail, […] stock solutions were prepared […] to avoid the use of high concentrations of DMSO in the bioassays. […] Serial two-fold dilutions (500–3.9 μM) were assayed. Consequently, the highest amount of DMSO used in the assay was 0.25% (v/v). […] Growth inhibitory effects are only observed at 500 μM, particularly for compound 7 (Fig 6D).

Compound	Mussels showing foot retraction [1]	pEC50 [1]	pIC50 [2]	pIC50 [3]	pIC50 [4]	pIC50 [5]	pIC50 [6]	LC50 at 24 h (in vivo) [µM]	Solubility in water [7]
CCCCCCCCCCCCCCCC[P+](c1ccccc1)(c1ccccc1)c1ccccc1 [Compound 16]	94–95%	4.47							
C/C=C/C[P+](c1ccccc1)(c1ccccc1)c1ccccc1 [Compound 3]	94–95%	4.33	< 3.30	3.53	3.60	3.58	3.46		
CCCCCCCCCCCCCCCCCCC[P+](c1ccccc1)(c1ccccc1)c1ccccc1 [Compound 18]								< 0.5	
CCCCCCCCCCCCCCCCCC[P+](c1ccccc1)(c1ccccc1)c1ccccc1 [Compound 17]								< 0.5	
CCCCC[P+](c1ccccc1)(c1ccccc1)c1ccccc1 [Compound 7]			< 3.30	3.69	3.89	3.75	3.56		poor solubility in water
BrCCCC[P+](c1ccccc1)(c1ccccc1)c1ccccc1 [Compound 4]			< 3.30	< 3.30	3.65	3.51	< 3.30		
CCCCN[P+](c1ccccc1)(c1ccccc1)c1ccccc1 [Compound 5]			< 3.30	< 3.30	< 3.30	< 3.30	< 3.30		

Source: article PMC4405350, “From Broad-Spectrum Biocides to Quorum Sensing Disruptors and Mussel Repellents: Antifouling Profile of Alkyl Triphenylphosphonium Salts” (PLoS ONE, 2015)
